Test results as given in patent US8802597B2, “Herbicidal pyrimidines” (E I du Pont de Nemours and Company, priority 2003, dated 2014).
Like-named read-outs stand apart in the source and are kept apart here.

What was measured:
Assay in all cases: Test C pre/postemergence
Type in all cases: in vivo
corn (Zea mays) = conditions: Zea mays; for Corn plant response rating (crop injury, 0 = no effect, 100 = complete kill) at 31 g/ha: 31 g ai/ha; for Corn plant response rating (crop injury, 0 = no effect, 100 = complete kill) at 62 g/ha: 62 g ai/ha; for Corn plant response rating (crop injury, 0 = no effect, 100 = complete kill) at 125 g/ha: 125 g ai/ha; for Corn plant response rating (crop injury, 0 = no effect, 100 = complete kill) at 250 g/ha: 250 g ai/ha
Outline: (§1)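 Greenhouse pot test: seeds treated preemergence, or plants at 2–18 cm (1- to 4-leaf stage) treated postemergence, with compound in non-phytotoxic solvent plus surfactant. Visual rating versus untreated controls after 12–14 days, scale 0 (no effect) to 100 (complete control); dash means not tested.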

[1] = tested on: common (oilseed) sunflower (Helianthus annuus); conditions: Helianthus annuus, pre-emergence, Preemergence, read-out: Plant response rating, Sunflower
Outline: as §1

[2] = tested on: lambsquarters (Chenopodium album); conditions: Chenopodium album; for pest or weed control at 31 g/ha: 31 g ai/ha; for pest or weed control at 62 g/ha: 62 g ai/ha; for pest or weed control at 125 g/ha: 125 g ai/ha; for pest or weed control at 250 g/ha: 250 g ai/ha
Outline: as §1

soybean (Glycine max) = conditions: Glycine max; for plant injury at 31 g/ha: 31 g ai/ha; for plant injury at 62 g/ha: 62 g ai/ha; for plant injury at 125 g/ha: 125 g ai/ha; for plant injury at 250 g/ha: 250 g ai/ha
Outline: as §1

[3] = tested on: johnsongrass (Sorghum halepense); conditions: Sorghum halepense; for pest or weed control at 31 g/ha: 31 g ai/ha; for pest or weed control at 62 g/ha: 62 g ai/ha; for pest or weed control at 125 g/ha: 125 g ai/ha; for pest or weed control at 250 g/ha: 250 g ai/ha
Outline: as §1

[4] = tested on: Surinam grass (Brachiaria decumbens); conditions: Urochloa decumbens; for pest or weed control at 125 g/ha: 125 g ai/ha; for pest or weed control at 31 g/ha: 31 g ai/ha; for pest or weed control at 62 g/ha: 62 g ai/ha; for pest or weed control at 250 g/ha: 250 g ai/ha
Outline: as §1

[5] = post-emergence, Postemergence, scale 0 to 100 (0 no effect, 100 complete control), read-out: Corn plant response rating
[6] = pre-emergence, Preemergence, scale 0 to 100, 0 no effect, 100 complete control, read-out: Plant response rating, Corn
[7] = post-emergence, Postemergence, scale 0 to 100 (0 no effect, 100 complete control), read-out: Lambsquarters plant response rating
[8] = pre-emergence, Preemergence, scale 0 to 100, 0 no effect, 100 complete control, read-out: Plant response rating, Lambsquarters
[9] = pre-emergence, Preemergence, scale 0 to 100, read-out: Plant response rating, Lambsquarters
[10] = post-emergence, Postemergence, scale 0 to 100 (0 no effect, 100 complete control), read-out: Soybean plant response rating
[11] = pre-emergence, Preemergence, scale 0 to 100, 0 no effect, 100 complete control, read-out: Plant response rating, Soybean
[12] = pre-emergence, Preemergence, scale 0 to 100, read-out: Plant response rating, Soybean
[13] = post-emergence, Postemergence, scale 0 to 100 (0 no effect, 100 complete control), read-out: Johnsongrass plant response rating
[14] = pre-emergence, Preemergence, scale 0 to 100, 0 no effect, 100 complete control, read-out: Plant response rating, Johnsongrass
[15] = pre-emergence, Preemergence, scale 0 to 100, read-out: Plant response rating, Johnsongrass
[16] = post-emergence, Postemergence, scale 0 to 100 (0 no effect, 100 complete control), read-out: Surinam Grass plant response rating
[17] = pre-emergence, Preemergence, scale 0 to 100, 0 no effect, 100 complete control, read-out: Plant response rating, Surinam Grass
[18] = pre-emergence, Preemergence, scale 0 to 100, read-out: Plant response rating, Surinam Grass

## CCOC(=O)c1nc(C2CC2)nc(N)c1F [Compound 30]
Corn (Zea mays); post-emergence, Postemergence, read-out: Plant response rating (scale of 0 to 100), Corn
  Corn plant response rating (crop injury, 0 = no effect, 100 = complete kill) at 31 g/ha: 0%
Corn (Zea mays); [5]
  Corn plant response rating (crop injury, 0 = no effect, 100 = complete kill) at 62 g/ha: 0%
  Corn plant response rating (crop injury, 0 = no effect, 100 = complete kill) at 125 g/ha: 0%
Corn (Zea mays); post-emergence, Postemergence, scale 0 to 100
  Corn plant response rating (crop injury, 0 = no effect, 100 = complete kill) at 250 g/ha: 50%
Corn (Zea mays); [6]
  Corn plant response rating (crop injury, 0 = no effect, 100 = complete kill) at 31 g/ha: 0%
  Corn plant response rating (crop injury, 0 = no effect, 100 = complete kill) at 62 g/ha: 0%
Corn (Zea mays); pre-emergence, Preemergence, scale 0 to 100, read-out: Plant response rating, Corn
  Corn plant response rating (crop injury, 0 = no effect, 100 = complete kill) at 125 g/ha: 0%
Corn (Zea mays); pre-emergence, Preemergence, scale 0 to 100
  Corn plant response rating (crop injury, 0 = no effect, 100 = complete kill) at 250 g/ha: 0%
[1]; 31 g ai/ha, scale 0 to 100, 0 no effect, 100 complete control
  pest or weed control at 31 g/ha: 20%
[1]; 62 g ai/ha, scale 0 to 100, 0 no effect, 100 complete control
  pest or weed control at 62 g/ha: 80%
[1]; 125 g ai/ha, scale 0 to 100
  pest or weed control at 125 g/ha: 90%
[1]; 250 g ai/ha, scale 0 to 100
  pest or weed control at 250 g/ha: 90%
[2]; post-emergence, Postemergence, read-out: Plant response rating (scale of 0 to 100), Lambsquarters
  pest or weed control at 31 g/ha: 50%
[2]; [7]
  pest or weed control at 62 g/ha: 60%
  pest or weed control at 125 g/ha: 80%
[2]; post-emergence, Postemergence, scale 0 to 100, read-out: Plant response rating, Lambsquarters
  pest or weed control at 250 g/ha: 90%
[2]; [8]
  pest or weed control at 31 g/ha: 0%
  pest or weed control at 62 g/ha: 80%
[2]; [9]
  pest or weed control at 125 g/ha: 85%
  pest or weed control at 250 g/ha: 90%
Soybean (Glycine max); post-emergence, Postemergence, read-out: Plant response rating (scale of 0 to 100), Soybean
  plant injury at 31 g/ha: 80%
Soybean (Glycine max); [10]
  plant injury at 62 g/ha: 90%
  plant injury at 125 g/ha: 90%
Soybean (Glycine max); post-emergence, Postemergence, scale 0 to 100, read-out: Plant response rating, Soybean
  plant injury at 250 g/ha: 95%
Soybean (Glycine max); [11]
  plant injury at 31 g/ha: 0%
  plant injury at 62 g/ha: 5%
Soybean (Glycine max); [12]
  plant injury at 125 g/ha: 5%
  plant injury at 250 g/ha: 70%
[3]; post-emergence, Postemergence, read-out: Plant response rating (scale of 0 to 100), Johnsongrass
  pest or weed control at 31 g/ha: 0%
[3]; [13]
  pest or weed control at 62 g/ha: 5%
  pest or weed control at 125 g/ha: 10%
[3]; post-emergence, Postemergence, scale 0 to 100, read-out: Plant response rating, Johnsongrass
  pest or weed control at 250 g/ha: 40%
[3]; [14]
  pest or weed control at 31 g/ha: 0%
  pest or weed control at 62 g/ha: 0%
[3]; [15]
  pest or weed control at 125 g/ha: 5%
  pest or weed control at 250 g/ha: 5%
[4]; [16]
  pest or weed control at 125 g/ha: 0%
  pest or weed control at 62 g/ha: 0%
[4]; post-emergence, Postemergence, read-out: Plant response rating (scale of 0 to 100), Surinam Grass
  pest or weed control at 31 g/ha: 0%
[4]; post-emergence, Postemergence, scale 0 to 100, read-out: Plant response rating, Surinam Grass
  pest or weed control at 250 g/ha: 35%
[4]; [17]
  pest or weed control at 31 g/ha: 0%
  pest or weed control at 62 g/ha: 0%
[4]; [18]
  pest or weed control at 125 g/ha: 0%
  pest or weed control at 250 g/ha: 20%
